Measurements as given in patent US20060046278A1, “Methods and kits for determining metabolic stability of compounds” (Qualyst, Inc., priority 2004, published 2006).

Columns and labels:
CYP2D6 [1] = target: T1, CYP2D6 (Homo sapiens, UniProt P10635); settings: 20 μM substrate; for CL rank order: degree of metabolism by rate of ROS-dependent CL production, reconstituted recombinant CYP2D6, 1 mM NADPH, 37° C.
Method: Stock solutions of NADPH were freshly prepared before each experiment in buffer. Test compounds were prepared as 20 mM stock solutions in DMSO and diluted to 2 mM in acetonitrile. […] Reactions were performed at 37° C. in 500 μL deep 96-well blocks. Reactions were incubated for 3 min prior to adding NADPH. Aliquots of the reaction mixture (10 μL) were removed at 0 (immediately after the addition of NADPH), 5,10, 20 and 30 min and quenched with 20 μL of acetonitrile and placed in 96-well polypropylene plates. ROS formation was quantified using a chemiluminescence reaction as described below.

CYP2D6 [2] = target: T1, CYP2D6; settings: degree of metabolism by parent compound remaining after 10 min; 5 μM substrate, recombinant CYP2D6 microsomes, 1 mM NADPH, 37° C.
Method: Test compounds were prepared as 20 mM stock solutions in DMSO and diluted to 2 mM in acetonitrile. […] Unless otherwise specified, reaction mixtures consisted of 5 μM substrate, 30 pmol/mL recombinant CYP2D6 microsomes (GenTest™) and 1 mM NADPH prepared in buffer to a final volume of 750 μl. Reactions were performed at 37° C. in 1.2 mL marsh tubes. Reactions were incubated for 3 min prior to adding NADPH. Aliquots of the reaction mixture (100 μL) were removed at 0 (immediately after the addition of NADPH), 5, 10, 20 and 30 min and quenched with 200 μL of acetonitrile (containing 2.5 μM terfenadine). Samples were placed at −20° C. for 1 hr and centrifuged using a Thermo IEC Centra GP8R table top centrifuge (3,000 rpm for 10 min). The supernatant fraction was transferred to 500 μL 96-well blocks for LC-MS analysis.
LC-MS analysis was performed using a HPLC system consisting of a Shimadzu LC-10AD pump and Perkin Elmer Series 200 Autosampler coupled to an Applied Biosystems Sciex API 3000 triple-quadrapole mass spectrometer. Test compounds were separated on an Agilent ZORBAX® Bonus-RP column (30×2.1 mm, 3.5 μm particle size) maintained at 30° C. […] The column was equilibrated with 100% buffer A for 2 min between each run. The HPLC eluant was directly introduced into the mass spectrometer equipped with a Turbo Ionspray interface operated at 4500 V in the positive mode. […] Compounds were detected by single ion monitoring using the following parameters: declustering potential, 35 V; focusing potential, 200 V; exit potential, 10 V.

T1 sequence (P10635 whole entry): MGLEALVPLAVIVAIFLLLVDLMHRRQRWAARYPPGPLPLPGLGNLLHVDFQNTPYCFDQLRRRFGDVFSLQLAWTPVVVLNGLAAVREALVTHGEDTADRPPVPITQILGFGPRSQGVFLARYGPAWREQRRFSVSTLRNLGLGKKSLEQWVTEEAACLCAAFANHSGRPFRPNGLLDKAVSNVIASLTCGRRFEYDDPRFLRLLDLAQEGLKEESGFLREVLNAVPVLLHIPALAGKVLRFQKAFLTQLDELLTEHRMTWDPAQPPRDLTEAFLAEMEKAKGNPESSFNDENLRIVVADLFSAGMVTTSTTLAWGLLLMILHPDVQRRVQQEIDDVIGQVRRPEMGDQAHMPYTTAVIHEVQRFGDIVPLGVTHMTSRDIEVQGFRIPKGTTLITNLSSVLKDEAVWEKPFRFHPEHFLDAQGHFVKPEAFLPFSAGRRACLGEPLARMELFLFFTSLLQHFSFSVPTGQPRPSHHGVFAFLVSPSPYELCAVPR

`CCC(C)n1ncn(-c2ccc(N3CCN(c4ccc(OCC5COC(Cn6cncn6)(c6ccc(Cl)cc6Cl)O5)cc4)CC3)cc2)c1=O` (stereo not drawn) [itraconazole] was tested, and the CL rank order (CYP2D6 [1]) was 1 (low (a rate of CL production equal to or below that observed in the absence of substrate (400 Units/min))) and the LC-MS rank order (CYP2D6 [2]) was 1 (low (more than 75% of parent compound remaining after 10 min)).

With `COc1ccc2c(c1)[C@]13CCCC[C@@H]1[C@H](C2)N(C)CC3` [dextromethorphan] the “increase in the rate of CL production over background (no substrate)” value (CYP2D6 [1]; CYP2D6 reaction, 30 min time course) was “approximately two-fold”, the CL rank order (CYP2D6 [1]) was 2 (moderate (a rate of CL production between 400 (background) and 800 CL Units/min)) and the LC-MS rank order (CYP2D6 [2]) was 2 (moderate (between 20 and 75% of parent compound remaining after 10 min)).

With `NC(=O)N1c2ccccc2C=Cc2ccccc21` [carbamazepine] the CL rank order (CYP2D6 [1]) was 1 (low (a rate of CL production equal to or below that observed in the absence of substrate (400 Units/min))) and the LC-MS rank order (CYP2D6 [2]) was 1 (low (more than 75% of parent compound remaining after 10 min)).

With `C=CCc1ccccc1OCC(O)CNC(C)C` (stereo not drawn) [alprenolol] the CL rank order (CYP2D6 [1]) was 3 (high (a rate of CL production above 800 Units/min)) and the LC-MS rank order (CYP2D6 [2]) was 3 (high (less than 20% of parent compound remaining after 10 min)).

For `COc1ccc([C@@H]2Sc3ccccc3N(CCN(C)C)C(=O)[C@@H]2OC(C)=O)cc1` [diltiazem], the CL rank order (CYP2D6 [1]) was 1 (low (a rate of CL production equal to or below that observed in the absence of substrate (400 Units/min))) and the LC-MS rank order (CYP2D6 [2]) was 1 (low (more than 75% of parent compound remaining after 10 min)).

With `COc1ccc(CCN2CCC(Nc3nc4ccccc4n3Cc3ccc(F)cc3)CC2)cc1` [astemizole] the CL rank order (CYP2D6 [1]) was 2 (moderate (a rate of CL production between 400 (background) and 800 CL Units/min)) and the LC-MS rank order (CYP2D6 [2]) was 2 (moderate (between 20 and 75% of parent compound remaining after 10 min)).

With `O=C(CCCN1CCC(O)(c2cccc(C(F)(F)F)c2)CC1)c1ccc(F)cc1` [trifluperidol] the CL rank order (CYP2D6 [1]) was 2 (moderate (a rate of CL production between 400 (background) and 800 CL Units/min)) and the LC-MS rank order (CYP2D6 [2]) was 1 (low (more than 75% of parent compound remaining after 10 min)).
